Source: patent US6495591B1, “Fungal efflux pump inhibitors” (Essential Therapeutics, Inc., priority 1997, dated 2002)

What was measured:
[1] = system: C. albicans YEM-13 (BEN); assay type: cell-based
[2] = system: YEM 30 C. albicans wt; assay: FEPI MIC with/without 1/8 fluconazole MIC at 24 hrs (Table 11); assay type: cell-based; settings: YEM 30, 24 hrs, 80% inhibition
[3] = system: C. albicans YEM-15 (CDR1 & CDR2 overexpressor); assay type: cell-based
[4] = target: pFLU (MF) efflux pump in S. cerevisiae YEM-38 (Candida albicans, UniProt G1UB37); assay: cell-based; assay type: cell-based, C. albicans; settings: YEM-38 pFLU; fluconazole fixed at FLUhalf 2
[5] = system: YEM 27 C. albicans ΔCDR1ΔCDR2 ΔBENΔFLU1; assay: microbe, parasite or virus in culture; assay type: cell-based; settings: YEM 27, 24 hrs, 80% inhibition
[6] = system: YEM 51 C. glabrata wt; assay: FEPI MIC with/without 1/8 fluconazole MIC at 24 hrs (Table 11); assay type: cell-based; settings: YEM 51, 24 hrs, 80% inhibition
[7] = system: YEM 24 C. albicans ΔCDR1, ΔCDR2; assay: microbe, parasite or virus in culture; assay type: cell-based; settings: YEM 24, 24 hrs, 80% inhibition
[8] = system: YEM 13 C. albicans BEN up; assay: microbe, parasite or virus in culture; assay type: cell-based; settings: YEM 13, 24 hrs, 80% inhibition
[9] = system: YEM 53 C. krusei; assay: FEPI MIC with/without 1/8 fluconazole MIC at 24 hrs (Table 11); assay type: cell-based; settings: YEM 53, 24 hrs, 80% inhibition
[10] = target: pCDRI (ABC) efflux pump in S. cerevisiae YEM-1 (Candida albicans, UniProt P43071); assay: cell-based; assay type: cell-based, C. albicans; settings: YEM-1 pCDRI; fluconazole fixed at FLUhalf 5.6
[11] = system: Aspergillus fumigatus; assay: FEPI MICs in combination with 1/4 the azole's MIC (Table 12); assay type: cell-based; design: FEPI MIC (alone): unit not given here
Description: The combinations were tested against a series of Candida strain with known expression of efflux pumps or with complete deletion of all known pumps and Aspergillus fumigatus. Results are reported as minimum inhibitory concentration (MIC) of […] in the presence or absence of […]. A total of 27 distinct milbemycins were studied.

[12] = target: pCgCDR (ABC) efflux pump in S. cerevisiae YEM-39 (Candida glabrata, UniProt Q6FK23); assay: cell-based; assay type: cell-based, C. glabrata; settings: YEM-39 pCgCDR; fluconazole fixed at FLUhalf 4
[13] = target: pCDR2 (ABC) efflux pump in S. cerevisiae YEM-37 (Candida albicans, UniProt P78595); assay: cell-based; assay type: cell-based, C. albicans; settings: YEM-37 pCDR2; fluconazole fixed at FLUhalf 1
[14] = system: YEM 15 C. albicans, CDR1CDR2 up; assay: microbe, parasite or virus in culture; assay type: cell-based; settings: YEM 15, 24 hrs, 80% inhibition
[15] = system: YEM 17 C. glabrata, CgCDR up; assay type: cell-based; settings: 24 hrs, 80% inhibition
[16] = target: pBEN (MF) efflux pump in S. cerevisiae YEM-2 (Candida albicans, UniProt P28873); assay: cell-based; assay type: cell-based, C. albicans; settings: YEM-2 pBEN; fluconazole fixed at FLUhalf 5.6
[17] = system: C. glabrata YEM-19 (CgCDR overexpressor); assay type: cell-based
[18] = system: pCgBEN (MF) efflux pump in S. cerevisiae YEM-40; assay type: cell-based, C. glabrata
[19] = system: C. krusei YEM-52 (ATCC 90878), wild type; assay: Broth dilution MIC, fluconazole with/without milbemycin oxime (Table 6); assay type: cell-based; settings: YEM-52; milbemycin oxime 2.5 μg/ml
[20] = system: C. krusei YEM-52 (ATCC 90878), wild type; assay: Minimal concentration to reduce fluconazole MIC sixteen-fold (Table 7); assay type: cell-based; settings: YEM-52, wild type

pBEN (MF) efflux pump in S. cerevisiae YEM-2, sequence (P28873 whole entry): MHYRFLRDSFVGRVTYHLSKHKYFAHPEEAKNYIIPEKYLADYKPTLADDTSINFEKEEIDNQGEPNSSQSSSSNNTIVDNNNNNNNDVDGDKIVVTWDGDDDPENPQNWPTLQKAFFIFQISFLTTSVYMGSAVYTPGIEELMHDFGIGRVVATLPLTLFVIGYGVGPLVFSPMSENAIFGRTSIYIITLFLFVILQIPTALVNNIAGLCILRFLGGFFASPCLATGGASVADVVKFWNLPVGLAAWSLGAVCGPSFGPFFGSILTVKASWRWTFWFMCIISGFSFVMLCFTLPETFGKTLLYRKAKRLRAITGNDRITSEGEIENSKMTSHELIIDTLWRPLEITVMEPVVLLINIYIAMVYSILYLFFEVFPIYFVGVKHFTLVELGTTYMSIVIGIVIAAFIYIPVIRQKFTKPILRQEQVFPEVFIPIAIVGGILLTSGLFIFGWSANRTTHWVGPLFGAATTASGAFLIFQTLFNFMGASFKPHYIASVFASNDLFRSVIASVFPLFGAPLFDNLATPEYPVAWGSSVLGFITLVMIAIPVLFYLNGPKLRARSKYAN
pCgCDR (ABC) efflux pump in S. cerevisiae YEM-39, sequence (Q6FK23 whole entry): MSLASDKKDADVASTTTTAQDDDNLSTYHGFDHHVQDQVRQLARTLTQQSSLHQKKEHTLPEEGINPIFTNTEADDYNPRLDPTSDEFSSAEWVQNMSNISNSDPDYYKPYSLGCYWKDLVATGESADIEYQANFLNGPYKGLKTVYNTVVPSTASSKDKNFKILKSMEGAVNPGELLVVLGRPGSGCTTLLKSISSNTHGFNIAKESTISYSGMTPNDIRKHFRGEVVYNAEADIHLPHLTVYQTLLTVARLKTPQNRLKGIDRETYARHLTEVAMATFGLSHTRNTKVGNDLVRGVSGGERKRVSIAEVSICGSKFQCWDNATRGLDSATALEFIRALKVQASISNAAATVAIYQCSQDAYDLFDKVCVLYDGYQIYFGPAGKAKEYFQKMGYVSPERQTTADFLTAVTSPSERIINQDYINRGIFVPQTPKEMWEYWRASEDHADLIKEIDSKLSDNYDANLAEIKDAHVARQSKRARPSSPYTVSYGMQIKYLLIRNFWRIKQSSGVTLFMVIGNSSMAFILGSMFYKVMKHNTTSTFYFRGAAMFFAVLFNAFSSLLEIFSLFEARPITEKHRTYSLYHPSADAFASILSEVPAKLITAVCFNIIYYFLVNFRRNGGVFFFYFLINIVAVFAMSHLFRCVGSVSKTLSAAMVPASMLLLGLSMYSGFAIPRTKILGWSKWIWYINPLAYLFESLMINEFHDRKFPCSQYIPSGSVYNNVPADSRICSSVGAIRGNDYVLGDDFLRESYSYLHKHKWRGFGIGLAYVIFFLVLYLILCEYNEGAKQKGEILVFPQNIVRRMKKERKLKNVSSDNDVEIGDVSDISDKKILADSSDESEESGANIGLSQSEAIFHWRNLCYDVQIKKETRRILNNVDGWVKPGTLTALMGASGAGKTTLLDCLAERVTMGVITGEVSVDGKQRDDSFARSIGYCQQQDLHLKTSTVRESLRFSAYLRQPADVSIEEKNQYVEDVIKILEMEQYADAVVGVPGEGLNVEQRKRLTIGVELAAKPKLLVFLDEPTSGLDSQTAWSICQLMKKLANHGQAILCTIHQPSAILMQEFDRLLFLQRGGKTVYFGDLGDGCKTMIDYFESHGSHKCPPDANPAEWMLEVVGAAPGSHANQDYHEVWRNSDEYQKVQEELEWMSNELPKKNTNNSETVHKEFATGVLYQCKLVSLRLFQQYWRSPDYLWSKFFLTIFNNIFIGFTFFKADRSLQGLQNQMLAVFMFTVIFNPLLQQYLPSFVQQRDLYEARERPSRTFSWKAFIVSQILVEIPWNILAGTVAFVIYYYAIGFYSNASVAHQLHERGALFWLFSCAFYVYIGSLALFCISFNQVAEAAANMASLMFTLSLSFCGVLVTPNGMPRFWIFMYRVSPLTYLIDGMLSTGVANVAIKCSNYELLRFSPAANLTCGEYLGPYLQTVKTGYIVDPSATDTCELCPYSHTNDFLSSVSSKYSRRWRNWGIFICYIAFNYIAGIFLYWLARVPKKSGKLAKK
pCDRI (ABC) efflux pump in S. cerevisiae YEM-1, sequence (P43071 whole entry): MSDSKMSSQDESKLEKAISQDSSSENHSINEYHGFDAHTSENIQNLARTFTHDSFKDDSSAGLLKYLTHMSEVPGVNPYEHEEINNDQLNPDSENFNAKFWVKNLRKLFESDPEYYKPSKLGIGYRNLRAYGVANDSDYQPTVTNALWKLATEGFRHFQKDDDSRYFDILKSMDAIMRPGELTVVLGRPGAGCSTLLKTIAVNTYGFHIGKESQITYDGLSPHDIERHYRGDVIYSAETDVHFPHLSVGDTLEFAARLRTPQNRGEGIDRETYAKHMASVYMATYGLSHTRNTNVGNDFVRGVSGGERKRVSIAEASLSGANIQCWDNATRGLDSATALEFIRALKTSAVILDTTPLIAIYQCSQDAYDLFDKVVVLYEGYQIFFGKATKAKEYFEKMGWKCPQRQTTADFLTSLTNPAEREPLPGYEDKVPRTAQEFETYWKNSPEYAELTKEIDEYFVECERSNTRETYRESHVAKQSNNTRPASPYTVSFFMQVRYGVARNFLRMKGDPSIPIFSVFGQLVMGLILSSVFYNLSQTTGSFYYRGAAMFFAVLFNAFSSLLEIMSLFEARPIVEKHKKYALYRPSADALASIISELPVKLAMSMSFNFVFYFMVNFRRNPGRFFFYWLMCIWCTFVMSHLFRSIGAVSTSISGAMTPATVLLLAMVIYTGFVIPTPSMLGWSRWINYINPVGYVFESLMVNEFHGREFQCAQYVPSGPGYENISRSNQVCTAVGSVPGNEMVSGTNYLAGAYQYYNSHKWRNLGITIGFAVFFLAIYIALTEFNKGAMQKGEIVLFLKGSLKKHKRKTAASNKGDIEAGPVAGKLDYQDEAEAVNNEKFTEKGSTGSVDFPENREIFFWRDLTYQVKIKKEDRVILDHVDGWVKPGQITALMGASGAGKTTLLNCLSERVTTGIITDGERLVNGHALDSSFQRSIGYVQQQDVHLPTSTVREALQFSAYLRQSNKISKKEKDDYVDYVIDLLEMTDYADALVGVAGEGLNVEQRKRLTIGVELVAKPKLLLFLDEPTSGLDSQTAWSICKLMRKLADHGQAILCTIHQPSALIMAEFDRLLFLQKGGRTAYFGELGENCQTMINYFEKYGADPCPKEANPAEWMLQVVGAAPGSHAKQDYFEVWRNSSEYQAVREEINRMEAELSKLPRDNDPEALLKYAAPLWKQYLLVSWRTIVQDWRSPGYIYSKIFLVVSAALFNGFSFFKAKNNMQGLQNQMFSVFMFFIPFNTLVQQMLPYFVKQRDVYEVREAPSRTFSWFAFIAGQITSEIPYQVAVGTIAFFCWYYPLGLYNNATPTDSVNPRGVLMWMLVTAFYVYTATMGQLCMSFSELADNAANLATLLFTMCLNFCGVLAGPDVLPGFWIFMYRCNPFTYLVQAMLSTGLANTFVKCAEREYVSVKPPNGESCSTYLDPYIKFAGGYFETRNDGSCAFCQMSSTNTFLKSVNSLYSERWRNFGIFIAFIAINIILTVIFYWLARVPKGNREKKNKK
pFLU (MF) efflux pump in S. cerevisiae YEM-38, sequence (G1UB37 whole entry): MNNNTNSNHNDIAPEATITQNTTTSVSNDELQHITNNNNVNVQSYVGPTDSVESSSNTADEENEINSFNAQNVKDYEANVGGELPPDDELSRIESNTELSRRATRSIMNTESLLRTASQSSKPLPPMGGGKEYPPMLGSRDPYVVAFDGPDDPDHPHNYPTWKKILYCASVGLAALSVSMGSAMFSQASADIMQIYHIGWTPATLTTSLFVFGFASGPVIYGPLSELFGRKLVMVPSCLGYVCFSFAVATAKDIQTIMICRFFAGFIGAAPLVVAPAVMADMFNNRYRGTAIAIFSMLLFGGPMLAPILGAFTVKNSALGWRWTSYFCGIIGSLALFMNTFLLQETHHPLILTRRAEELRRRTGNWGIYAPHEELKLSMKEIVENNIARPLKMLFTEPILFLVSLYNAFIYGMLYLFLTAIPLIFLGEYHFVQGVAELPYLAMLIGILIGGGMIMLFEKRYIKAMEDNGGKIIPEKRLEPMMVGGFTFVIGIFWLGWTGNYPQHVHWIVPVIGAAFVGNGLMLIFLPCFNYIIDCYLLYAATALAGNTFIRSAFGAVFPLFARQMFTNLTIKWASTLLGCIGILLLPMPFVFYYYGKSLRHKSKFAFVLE

**Q.** For Milbemycin oxime [Compound 2], which “Minimal concentration required to reduce the MIC of fluconazole by sixteen-fold” value [1] is on record?
**A.** The value was 80 µg/mL.

**Q.** What about the “MIC of compound in the presence of fluconazole (+)” value ([2]; 1/8 × MIC of fluconazole) of the same substance?
**A.** The value was “≦0.03”.

**Q.** What about the MIC of compound in the absence of fluconazole (−) [2] of the same substance?
**A.** Its MIC of compound in the absence of fluconazole (−) is > 64 µg/mL.

**Q.** And the “Minimal concentration required to reduce the MIC of fluconazole by sixteen-fold” value [3]?
**A.** Its value is <0.07 µg/mL.

**Q.** And the “FEPIhalf (concentration needed to reduce activity of efflux pump by 50%)” value [4]?
**A.** The value was >64.

**Q.** What about the MIC of compound in the presence of fluconazole (+) ([5]; 1/8 × MIC of fluconazole) of the same substance?
**A.** Its MIC of compound in the presence of fluconazole (+) is 64 µg/mL.

**Q.** And the MIC of compound in the absence of fluconazole (−) [5]?
**A.** The MIC of compound in the absence of fluconazole (−) was > 64 µg/mL.

**Q.** And the MIC of compound in the presence of fluconazole (+) ([6]; 1/8 × MIC of fluconazole)?
**A.** Its MIC of compound in the presence of fluconazole (+) is 16 µg/mL.

**Q.** What about the MIC of compound in the absence of fluconazole (−) [6] of the same substance?
**A.** The MIC of compound in the absence of fluconazole (−) was > 64 µg/mL.

**Q.** What about the MIC of compound in the presence of fluconazole (+) ([7]; 1/8 × MIC of fluconazole) of the same substance?
**A.** The MIC of compound in the presence of fluconazole (+) was > 64 µg/mL.

**Q.** And the MIC of compound in the absence of fluconazole (−) [7]?
**A.** Its MIC of compound in the absence of fluconazole (−) is > 64 µg/mL.

**Q.** And the MIC of compound in the presence of fluconazole (+) ([8]; 1/8 × MIC of fluconazole)?
**A.** Its MIC of compound in the presence of fluconazole (+) is > 64 µg/mL.

**Q.** What about the MIC of compound in the absence of fluconazole (−) [8] of the same substance?
**A.** Its MIC of compound in the absence of fluconazole (−) is > 64 µg/mL.

**Q.** What about the MIC of compound in the presence of fluconazole (+) ([9]; 1/8 × MIC of fluconazole) of the same substance?
**A.** The MIC of compound in the presence of fluconazole (+) was 2 µg/mL.

**Q.** What about the MIC of compound in the absence of fluconazole (−) [9] of the same substance?
**A.** Its MIC of compound in the absence of fluconazole (−) is > 64 µg/mL.

**Q.** What about the “FEPIhalf (concentration needed to reduce activity of efflux pump by 50%)” value [10] of the same substance?
**A.** Its value is <0.06.

**Q.** What about the “FEPI MIC with fluconazole, 60% Inh” value ([11]; fluconazole 32 μg/ml (1/4 MIC), 60% inhibition) of the same substance?
**A.** The value was 2.

**Q.** What about the “FEPI MIC with fluconazole, 80% Inh” value ([11]; fluconazole 32 μg/ml (1/4 MIC), 80% inhibition) of the same substance?
**A.** The value was >64.

**Q.** And the “FEPI MIC with itraconazole, 60% Inh” value ([11]; itraconazole 0.063 μg/ml (1/4 MIC), 60% inhibition)?
**A.** The value was >64.

**Q.** And the “FEPI MIC with itraconazole, 80% Inh” value ([11]; itraconazole 0.063 μg/ml (1/4 MIC), 80% inhibition)?
**A.** Its value is >64.

**Q.** What about the “FEPI MIC with ketoconazole, 60% Inh” value ([11]; ketoconazole 4 μg/ml (1/4 MIC), 60% inhibition) of the same substance?
**A.** The value was 0.5.

**Q.** What about the “FEPI MIC with ketoconazole, 80% Inh” value ([11]; ketoconazole 4 μg/ml (1/4 MIC), 80% inhibition) of the same substance?
**A.** The value was 0.5.

**Q.** What about the “FEPI MIC (alone)” value ([11]; no azole, 80% inhibition, 35° C., CM Broth) of the same substance?
**A.** Its value is >64.

**Q.** And the “FEPIhalf (concentration needed to reduce activity of efflux pump by 50%)” value [12]?
**A.** Its value is 64.

**Q.** And the “FEPIhalf (concentration needed to reduce activity of efflux pump by 50%)” value [13]?
**A.** Its value is 0.125.

**Q.** And the “MIC of compound in the presence of fluconazole (+)” value ([14]; 1/8 × MIC of fluconazole)?
**A.** Its value is “≦0.03”.

**Q.** What about the MIC of compound in the absence of fluconazole (−) [14] of the same substance?
**A.** The MIC of compound in the absence of fluconazole (−) was > 64 µg/mL.

**Q.** What about the MIC of compound in the presence of fluconazole (+) ([15]; 1/8 × MIC of fluconazole) of the same substance?
**A.** The MIC of compound in the presence of fluconazole (+) was 4 µg/mL.

**Q.** And the MIC of compound in the absence of fluconazole (−) [15]?
**A.** The MIC of compound in the absence of fluconazole (−) was > 64 µg/mL.

**Q.** And the “FEPIhalf (concentration needed to reduce activity of efflux pump by 50%)” value [16]?
**A.** Its value is >64.

**Q.** And the “Minimal concentration required to reduce the MIC of fluconazole by sixteen-fold” value [17]?
**A.** The value was >80 µg/mL.

**Q.** What about the “FEPIhalf (concentration needed to reduce activity of efflux pump by 50%)” value [18] of the same substance?
**A.** The value was >64.

**Q.** And the “MIC of fluconazole, Flu + McOxm (2.5 μg/ml)” value [19]?
**A.** The value was 2 µg/mL.

**Q.** What about the “Minimal concentration required to reduce the MIC of fluconazole by sixteen-fold” value [20] of the same substance?
**A.** The value was 1.25 µg/mL.
